Experimental data taken from the NIST ThermoML archive (doi:10.1021/je900387e).

Assay: xn = mol fraction of the nth substance listed
Conditions: Liquid, Pycnometric method

Cn1ccnc1 [1-methylimidazole] + O=C=O
Conditions | mass density [kg/m3]
322.7 K, 12990 kPa, x1 = 0.0487 | 807
322.7 K, 13020 kPa, x1 = 0.0247 | 755
322.7 K, 13030 kPa, x1 = 0.0102 | 707
322.7 K, 13120 kPa, x1 = 0.0487 | 809
322.7 K, 13250 kPa, x1 = 0.0487 | 812
322.7 K, 13310 kPa, x1 = 0.0247 | 762
322.7 K, 13480 kPa, x1 = 0.0102 | 723
322.7 K, 13500 kPa, x1 = 0.0487 | 817
322.7 K, 13620 kPa, x1 = 0.0247 | 770
322.7 K, 13790 kPa, x1 = 0.0487 | 822
322.7 K, 13950 kPa, x1 = 0.0247 | 777
322.7 K, 14040 kPa, x1 = 0.0102 | 740
322.7 K, 14080 kPa, x1 = 0.0487 | 827
322.7 K, 14340 kPa, x1 = 0.0247 | 786
322.7 K, 14370 kPa, x1 = 0.0487 | 832
322.7 K, 14510 kPa, x1 = 0.0102 | 753
322.7 K, 14640 kPa, x1 = 0.1024 | 909
322.7 K, 14710 kPa, x1 = 0.0487 | 838
322.7 K, 14750 kPa, x1 = 0.0247 | 794
322.7 K, 14780 kPa, x1 = 0.1024 | 911
322.7 K, 14920 kPa, x1 = 0.1024 | 912
322.7 K, 15030 kPa, x1 = 0.1024 | 913
322.7 K, 15070 kPa, x1 = 0.0487 | 843
322.7 K, 15180 kPa, x1 = 0.1024 | 915
322.7 K, 15200 kPa, x1 = 0.0247 | 802
322.7 K, 15260 kPa, x1 = 0.0102 | 771
322.7 K, 15290 kPa, x1 = 0.1024 | 916
322.7 K, 15430 kPa, x1 = 0.0487 | 849
322.7 K, 15470 kPa, x1 = 0.1024 | 917
322.7 K, 15590 kPa, x1 = 0.1024 | 918
322.7 K, 15690 kPa, x1 = 0.0247 | 810
322.7 K, 15860 kPa, x1 = 0.0487 | 855
322.7 K, 15900 kPa, x1 = 0.1024 | 922
322.7 K, 16070 kPa, x1 = 0.0247 | 816
322.7 K, 16210 kPa, x1 = 0.0102 | 790
322.7 K, 16230 kPa, x1 = 0.1024 | 924
322.7 K, 16280 kPa, x1 = 0.0487 | 860
322.7 K, 16530 kPa, x1 = 0.1024 | 927
322.7 K, 16540 kPa, x1 = 0.0247 | 824
322.7 K, 16700 kPa, x1 = 0.0487 | 866
322.7 K, 16830 kPa, x1 = 0.0247 | 828
322.7 K, 16880 kPa, x1 = 0.1024 | 929
322.7 K, 17020 kPa, x1 = 0.0102 | 805
322.7 K, 17160 kPa, x1 = 0.0247 | 833
322.7 K, 17180 kPa, x1 = 0.1024 | 933
322.7 K, 17340 kPa, x1 = 0.1024 | 934
322.7 K, 17490 kPa, x1 = 0.0247 | 837
322.7 K, 17570 kPa, x1 = 0.1024 | 936
322.7 K, 17750 kPa, x1 = 0.1024 | 937
322.7 K, 17830 kPa, x1 = 0.0247 | 842
322.7 K, 17920 kPa, x1 = 0.1024 | 939
322.7 K, 17960 kPa, x1 = 0.0102 | 821
322.7 K, 18120 kPa, x1 = 0.1024 | 940
322.7 K, 18150 kPa, x1 = 0.0102 | 824
322.7 K, 18330 kPa, x1 = 0.1024 | 942
322.7 K, 18570 kPa, x1 = 0.1024 | 943
322.7 K, 18770 kPa, x1 = 0.1024 | 945
322.7 K, 18990 kPa, x1 = 0.1024 | 946
327.6 K, 11610 kPa, x1 = 0.0102 | 548
327.6 K, 11720 kPa, x1 = 0.0102 | 558
327.6 K, 11840 kPa, x1 = 0.0102 | 568
327.6 K, 11970 kPa, x1 = 0.0102 | 578
327.6 K, 12110 kPa, x1 = 0.0102 | 589
327.6 K, 12270 kPa, x1 = 0.0102 | 600
327.6 K, 12440 kPa, x1 = 0.0102 | 612
327.6 K, 12510 kPa, x1 = 0.0247 | 682
327.6 K, 12630 kPa, x1 = 0.0102 | 624
327.6 K, 12630 kPa, x1 = 0.0247 | 687
327.6 K, 12720 kPa, x1 = 0.0247 | 691
327.6 K, 12850 kPa, x1 = 0.0102 | 636
327.6 K, 12890 kPa, x1 = 0.0247 | 698
327.6 K, 13060 kPa, x1 = 0.0247 | 704
327.6 K, 13110 kPa, x1 = 0.0102 | 649
327.6 K, 13250 kPa, x1 = 0.0247 | 711
327.6 K, 13400 kPa, x1 = 0.0102 | 663
327.6 K, 13460 kPa, x1 = 0.0247 | 718
327.6 K, 13670 kPa, x1 = 0.0247 | 724
327.6 K, 13730 kPa, x1 = 0.0102 | 677
327.6 K, 13900 kPa, x1 = 0.0247 | 731
327.6 K, 14110 kPa, x1 = 0.0102 | 692
327.6 K, 14140 kPa, x1 = 0.0247 | 738
327.6 K, 14190 kPa, x1 = 0.0487 | 791
327.6 K, 14340 kPa, x1 = 0.0487 | 795
327.6 K, 14410 kPa, x1 = 0.0247 | 745
327.6 K, 14560 kPa, x1 = 0.0102 | 707
327.6 K, 14570 kPa, x1 = 0.0487 | 799
327.6 K, 14710 kPa, x1 = 0.0247 | 753
327.6 K, 14830 kPa, x1 = 0.0487 | 804
327.6 K, 15010 kPa, x1 = 0.0247 | 760
327.6 K, 15080 kPa, x1 = 0.0487 | 809
327.6 K, 15100 kPa, x1 = 0.0102 | 723
327.6 K, 15270 kPa, x1 = 0.0247 | 766
327.6 K, 15370 kPa, x1 = 0.0487 | 814
327.6 K, 15550 kPa, x1 = 0.0247 | 772
327.6 K, 15660 kPa, x1 = 0.0487 | 819
327.6 K, 15730 kPa, x1 = 0.0102 | 740
327.6 K, 15940 kPa, x1 = 0.0487 | 825
327.6 K, 15970 kPa, x1 = 0.0247 | 779
327.6 K, 16080 kPa, x1 = 0.1024 | 899
327.6 K, 16170 kPa, x1 = 0.1024 | 900
327.6 K, 16280 kPa, x1 = 0.0487 | 829
327.6 K, 16300 kPa, x1 = 0.1024 | 901
327.6 K, 16400 kPa, x1 = 0.0247 | 787
327.6 K, 16420 kPa, x1 = 0.1024 | 903
327.6 K, 16460 kPa, x1 = 0.0102 | 758
327.6 K, 16540 kPa, x1 = 0.1024 | 904
327.6 K, 16640 kPa, x1 = 0.0247 | 791
327.6 K, 16650 kPa, x1 = 0.0487 | 836
327.6 K, 16650 kPa, x1 = 0.1024 | 905
327.6 K, 16780 kPa, x1 = 0.1024 | 906
327.6 K, 16930 kPa, x1 = 0.1024 | 908
327.6 K, 16980 kPa, x1 = 0.0247 | 798
327.6 K, 17060 kPa, x1 = 0.1024 | 909
327.6 K, 17130 kPa, x1 = 0.0102 | 771
327.6 K, 17210 kPa, x1 = 0.0247 | 802
327.6 K, 17210 kPa, x1 = 0.1024 | 911
327.6 K, 17330 kPa, x1 = 0.0487 | 846
327.6 K, 17390 kPa, x1 = 0.1024 | 912
327.6 K, 17490 kPa, x1 = 0.1024 | 913
327.6 K, 17600 kPa, x1 = 0.0247 | 808
327.6 K, 17620 kPa, x1 = 0.1024 | 914
327.6 K, 17740 kPa, x1 = 0.0487 | 851
327.6 K, 17750 kPa, x1 = 0.1024 | 916
327.6 K, 17850 kPa, x1 = 0.0102 | 786
327.6 K, 17870 kPa, x1 = 0.0247 | 813
327.6 K, 17960 kPa, x1 = 0.1024 | 918
327.6 K, 18080 kPa, x1 = 0.1024 | 919
327.6 K, 18200 kPa, x1 = 0.0487 | 857
327.6 K, 18230 kPa, x1 = 0.1024 | 920
327.6 K, 18380 kPa, x1 = 0.0102 | 795
327.6 K, 18380 kPa, x1 = 0.1024 | 922
327.6 K, 18580 kPa, x1 = 0.1024 | 923
327.6 K, 18690 kPa, x1 = 0.0487 | 863
327.6 K, 18770 kPa, x1 = 0.1024 | 924
327.6 K, 18840 kPa, x1 = 0.0102 | 802
327.6 K, 18940 kPa, x1 = 0.1024 | 925
332.4 K, 12410 kPa, x1 = 0.0102 | 539
332.4 K, 12550 kPa, x1 = 0.0102 | 548
332.4 K, 12670 kPa, x1 = 0.0102 | 558
332.4 K, 12820 kPa, x1 = 0.0102 | 568
332.4 K, 12980 kPa, x1 = 0.0102 | 578
332.4 K, 13160 kPa, x1 = 0.0102 | 589
